We go through 1 compound from patent US20080045486A1, “OCULAR ADMINISTRATION OF TESTOSTERONE” (priority 2006, published 2008).

Molecules are shown by their SMILES.

Series [1] is described as follows: Safety and pharmacokinetics study of testosterone ophthalmic solutions for up to 14 days in postmenopausal women. In kind it is in vivo, human. Conditions: for equivalent absorbed daily dose: assuming production rate 0.125 mg/day; for median Cmax of serum testosterone concentration: each eye twice daily, day 13, healthy postmenopausal women. The method, then: A clinical study entitled “A Single-Center, Double Masked, Parallel, Dose-Ranging, Vehicle Controlled Study Evaluating the Safety and Pharmacokinetics of Testosterone (0.03%, 0.1%, 0.3%, and 0.6%) Ophthalmic Solutions for up to 14 Days in Postmenopausal Women” was conducted to determine the effectiveness of the ocular administration of testosterone. This study was a randomized, single-center, double-masked, parallel-group study of five treatment groups, with each subject acting as their own baseline control for serum testosterone concentrations. Subjects received testosterone ophthalmic solution 0.03%, 0.1%, 0.3%, 0.6% or vehicle ophthalmic solution in each eye twice daily for 14 days. Each subject had blood withdrawn for the measurement of serum testosterone concentrations. On day 13, blood samples were taken prior to the morning dose (time 0), and at 5, 10, 20, 30, and 45 minutes, 1, 2, 4, 6, 8, and 12 hours post-dose. On day −1, blood samples were taken at the same time as day 13 to evaluate the baseline serum testosterone levels. On days −6, 7, 14, and 27, one blood sample was taken at the same time as day 13 predose draw to evaluate the trough serum testosterone levels (there were no dosing on days −6, −1, and 27). […] Serum testosterone concentrations were assayed using a validated double antibody radioimmunoassay method with a lower limit of quantitation (LLOQ) at 29 pg/mL or 2.9 ng/dL.

The nature of series [2]: 16-week dose-ranging study of testosterone ophthalmic solutions in patients with keratoconjunctivitis sicca, serum pharmacokinetics. In kind it is in vivo, human. Particulars: for increase of serum testosterone concentration over the endogenous baseline / concentration at 10 min: 10 minutes after dosing; for increase of serum testosterone concentration over the endogenous baseline: male patients; for concentration at 10 min: human, serum, other: ophthalmic solution, eye drop, one drop twice daily, female patients, baseline approximately 20 ng/dL. The method, then:
Another clinical study entitled “A Multi-Center, Parallel, Randomized, Double-Masked, Vehicle-Controlled, Dose-Ranging Study to Evaluate the Safety, Tolerability and Efficacy of Testosterone 0.01%, 0.1%, and 0.3% Ophthalmic Solutions Administered Twice Daily for 16 weeks in Patients with Keratoconjunctivitis Sicca (KCS)” was conducted to determine the effectiveness of the ocular administration of testosterone in both women and men. This study was a randomized, multi-center, double-masked, parallel-group study of three treatment groups and one vehicle group. Patients were randomized to either 0.01%, 0.1%, 0.3% testosterone or vehicle of 0.3% testosterone ophthalmic solution. In the treatment phase, patients were instructed to instill one drop of the randomly assigned masked treatment twice daily (in the morning upon waking and before bedtime) for 16 weeks. Data from 135 patients (100 females and 35 males) were included in the pharmacokinetic data analysis. A single blood sample (20 mL) was taken from each patient pre-dose and at 10 minutes post dose on day 0, weeks 1, 4, 8, 12, and 16 for the determination of serum testosterone, dihydrotestosterone, 3-alpha-androstanediol glucuronide and sex hormone binding globulin concentrations. Serum concentrations of testosterone and dihydrotestosterone were determined by a validated gas chromatography-mass spectrometry (GC-MS) method with a quantitation range for DHT of 0.1 to 100 ng/dL and for testosterone of 1.0 to 1000 ng/dL. Serum concentrations of 3-alpha-androstanediol-glucuronide were quantitated by a validated radioimmunoassay method with a range of quantitation from 0.800 to 100 ng/mL, and serum concentrations of sex hormone binding globulin were determined using a validated two-site immunoradiometric assay (IRMA) method with a range of quantitation of 5 to 320 nmol/L for a 1:100 diluted sample.

Take `C[C@]12CC[C@H]3[C@@H](CCC4=CC(=O)CC[C@@]43C)[C@@H]1CC[C@@H]2O` [testosterone, (17β)-17-Hydroxyandrost-4-en-3-one]: the “equivalent absorbed daily dose” value in series [1] (0.03% formulation BID both eyes) came to 0.024 mg; in series [1] (0.1% formulation BID both eyes), 0.094 mg; in series [1] (0.3% formulation BID both eyes), 0.15 mg; in series [1] (0.6% formulation BID both eyes) it was 0.31 mg. The “average increase of serum testosterone level” value was 3.8 ng/dL in series [1] (0.03% formulation, 50 μL BID to both eyes (0.06 mg/day)); 15 ng/dL in series [1] (0.1% formulation, 50 μL BID to both eyes (0.2 mg/day)); 24 ng/dL in series [1] (0.3% formulation, 50 μL BID to both eyes (0.6 mg/day)); 49 ng/dL in series [1] (0.6% formulation, 50 μL BID to both eyes (1.2 mg/day)). The “median Cmax of serum testosterone concentration” value in series [1] (0.03% ophthalmic solution) was determined as 93.5 ng/dL; in series [1] (0.1% ophthalmic solution), 193 ng/dL; in series [1] (0.3% ophthalmic solution), 237 ng/dL; in series [1] (0.6% ophthalmic solution), 457 ng/dL. The “time for serum testosterone concentration to return to the baseline level” value in series [1] (after dosing of testosterone ophthalmic solution) is 12 h. Further, the “fraction of the peak serum level gone” value in series [1] (in 2 hours after ophthalmical dosing) was “about 90%”. Also, the “increase of serum testosterone concentration over the endogenous baseline” value was 13% in series [2] (0.1% solution) and 36% in series [2] (0.3% solution). Moreover, in series [2] (4 month dosing period, 0.01%, 0.1% and 0.3% dose levels), the “safety concern from serum pharmacokinetic data” value was “did not indicate a safety concern”. Moreover, the concentration at 10 min in series [2] (0.01% solution) was found to be 0.35 ng/mL; in series [2] (0.1% solution), 2 ng/mL; in series [2] (0.3% solution), 3.5 ng/mL.
